ChEMBL document CHEMBL6127118, “Identification of Oral Bioavailable Coumarin Derivatives as Potential AR Antagonists Targeting Prostate Cancer” (J Med Chem, 2024)
pIC50: −log10 of the molar value.

Columns and labels:
Androgen receptor [1] = target: T1, Androgen receptor (Homo sapiens, UniProt P10275); experiment: Antagonist activity at DHT-induced Androgen receptor in human LNCaP cells transfected with ARR2PB-eGFP incubated for 3 days; format: cell-based
T1 sequence (P10275 whole entry): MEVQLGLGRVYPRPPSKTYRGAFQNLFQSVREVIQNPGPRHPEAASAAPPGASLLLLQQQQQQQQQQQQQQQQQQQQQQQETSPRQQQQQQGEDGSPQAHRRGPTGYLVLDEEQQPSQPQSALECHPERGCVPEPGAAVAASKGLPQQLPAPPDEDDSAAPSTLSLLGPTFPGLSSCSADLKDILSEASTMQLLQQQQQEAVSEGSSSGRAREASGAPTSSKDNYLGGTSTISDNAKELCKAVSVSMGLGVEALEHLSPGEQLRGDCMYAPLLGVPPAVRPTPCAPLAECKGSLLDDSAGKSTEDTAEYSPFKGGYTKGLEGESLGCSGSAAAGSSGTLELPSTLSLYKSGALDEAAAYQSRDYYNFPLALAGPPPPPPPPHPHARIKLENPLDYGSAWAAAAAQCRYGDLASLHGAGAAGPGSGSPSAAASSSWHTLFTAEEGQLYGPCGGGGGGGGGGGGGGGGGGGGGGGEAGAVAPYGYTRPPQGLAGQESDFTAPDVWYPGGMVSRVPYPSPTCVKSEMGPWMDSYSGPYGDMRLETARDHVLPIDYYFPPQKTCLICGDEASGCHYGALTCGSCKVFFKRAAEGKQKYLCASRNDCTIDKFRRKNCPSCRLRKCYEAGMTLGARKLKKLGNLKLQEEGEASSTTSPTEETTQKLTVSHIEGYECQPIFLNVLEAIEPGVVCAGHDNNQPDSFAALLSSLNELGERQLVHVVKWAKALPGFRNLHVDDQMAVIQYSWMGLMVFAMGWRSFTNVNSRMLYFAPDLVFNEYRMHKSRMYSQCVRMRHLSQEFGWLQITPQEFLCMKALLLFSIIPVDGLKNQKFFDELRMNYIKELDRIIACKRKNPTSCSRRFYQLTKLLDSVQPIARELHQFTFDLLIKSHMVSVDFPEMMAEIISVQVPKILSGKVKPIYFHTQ

[2] = Clearance in Sprague-Dawley rat at 1 mg/kg, iv; format: ADME, organism-based; details: in vivo
[3] = Antiproliferative activity against human Chang liver cells incubated for 72 hrs by MTT assay; format: toxicity, cell-based
[4] = Oral bioavailability in Sprague-Dawley rat at 5 mg/kg; format: ADME, organism-based; details: in vivo
[5] = Half life in Sprague-Dawley rat at 1 mg/kg, iv; format: ADME, organism-based; details: in vivo
[6] = Half life in Sprague-Dawley rat at 5 mg/kg, po; format: ADME, organism-based; details: in vivo
Androgen receptor [7] = target: Androgen receptor (Homo sapiens, UniProt P10275, W742C); experiment: Antagonist activity at DHT-induced Androgen receptor W741C mutant in human PC-3 cells transfected with ARR2PB-Luc by Dual-Luciferase Reporter assay; format: cell-based
[8] = AUC (0 to t) in Sprague-Dawley rat at 5 mg/kg, po; format: ADME, organism-based; details: in vivo
[9] = Toxicity in CB17 SCID mouse model xenografted with human LNCaP cells assessed as drug tolerance at 60 mg/kg, po bid for 32 days; format: organism-based; details: in vivo, 768 h, time 32 day
[10] = Apparent volume of distribution in Sprague-Dawley rat at 1 mg/kg, iv; format: ADME, organism-based; details: in vivo, read-out: Vz
[11] = Apparent volume of distribution in Sprague-Dawley rat at 5 mg/kg, po; format: ADME, organism-based; details: in vivo
NIH3T3 = experiment: Antiproliferative activity against mouse NIH3T3 cells incubated for 72 hrs by MTT assay; format: toxicity, cell-based; details: nih3t3, 72 h
[12] = AUC (0 to t) in Sprague-Dawley rat at 1 mg/kg, iv; format: ADME, organism-based; details: in vivo
[13] = Toxicity in CB17 SCID mouse model xenografted with human LNCaP cells assessed as body weight loss at 60 mg/kg, po bid for 32 days; format: organism-based; details: in vivo, 768 h, time 32 day
[14] = Clearance in Sprague-Dawley rat at 5 mg/kg, po; format: ADME, organism-based; details: in vivo
Androgen receptor [15] = target: Androgen receptor (Homo sapiens, UniProt P10275, F877L/T878A); experiment: Antagonist activity at DHT-induced Androgen receptor F876L/[…] mutant in human PC-3 cells transfected with ARR2PB-Luc by Dual-Luciferase Reporter assay; format: cell-based
[16] = Cmax in Sprague-Dawley rat at 5 mg/kg, po; format: ADME, organism-based; details: in vivo
[17] = Toxicity in CB17 SCID mouse model xenografted with human LNCaP cells assessed as signs of toxicity at 60 mg/kg, po bid for 32 days; format: organism-based; details: in vivo, 768 h, time 32 day
GES1 = experiment: (§1) Antiproliferative activity against human GES1 cells incubated for 72 hrs by MTT assay; format: toxicity, cell-based; details: ges1, 72 h, time 72 hrs
[18] = Cmax in Sprague-Dawley rat at 1 mg/kg, iv; format: ADME, organism-based; details: in vivo
LNCaP = experiment: Antiproliferative activity against androgen dependent-human LNCaP cells incubated for 72 hrs by MTT assay
CWR22R = experiment: Antiproliferative activity against androgen independent-human 22Rv1 cells incubated for 72 hrs by MTT assay; details: 22Rv1, 72 h
PC-3 = experiment: Antiproliferative activity against androgen independent-human PC-3 cells incubated for 72 hrs by MTT assay; details: PC-3, 72 h
DU-145 = experiment: Antiproliferative activity against androgen independent-human DU-145 cells incubated for 72 hrs by MTT assay; details: DU-145, 72 h
LNCaP C4-2B = experiment: Antiproliferative activity against androgen independent-human LNCaP C4-2B cells incubated for 72 hrs by MTT assay
[19] = as §1; format: toxicity, cell-based; details: GES1 cells
[20] = Inhibition of DHT-induced secreted PSA production in human LNCaP cells
[21] = target: T2, Mineralocorticoid receptor (Homo sapiens, UniProt P08235); experiment: Antagonist activity at aldosterone-induced Mineralocorticoid receptor (unknown origin) transfected in HEK293T cells by Dual-Luciferase Reporter assay
T2 sequence (P08235 whole entry): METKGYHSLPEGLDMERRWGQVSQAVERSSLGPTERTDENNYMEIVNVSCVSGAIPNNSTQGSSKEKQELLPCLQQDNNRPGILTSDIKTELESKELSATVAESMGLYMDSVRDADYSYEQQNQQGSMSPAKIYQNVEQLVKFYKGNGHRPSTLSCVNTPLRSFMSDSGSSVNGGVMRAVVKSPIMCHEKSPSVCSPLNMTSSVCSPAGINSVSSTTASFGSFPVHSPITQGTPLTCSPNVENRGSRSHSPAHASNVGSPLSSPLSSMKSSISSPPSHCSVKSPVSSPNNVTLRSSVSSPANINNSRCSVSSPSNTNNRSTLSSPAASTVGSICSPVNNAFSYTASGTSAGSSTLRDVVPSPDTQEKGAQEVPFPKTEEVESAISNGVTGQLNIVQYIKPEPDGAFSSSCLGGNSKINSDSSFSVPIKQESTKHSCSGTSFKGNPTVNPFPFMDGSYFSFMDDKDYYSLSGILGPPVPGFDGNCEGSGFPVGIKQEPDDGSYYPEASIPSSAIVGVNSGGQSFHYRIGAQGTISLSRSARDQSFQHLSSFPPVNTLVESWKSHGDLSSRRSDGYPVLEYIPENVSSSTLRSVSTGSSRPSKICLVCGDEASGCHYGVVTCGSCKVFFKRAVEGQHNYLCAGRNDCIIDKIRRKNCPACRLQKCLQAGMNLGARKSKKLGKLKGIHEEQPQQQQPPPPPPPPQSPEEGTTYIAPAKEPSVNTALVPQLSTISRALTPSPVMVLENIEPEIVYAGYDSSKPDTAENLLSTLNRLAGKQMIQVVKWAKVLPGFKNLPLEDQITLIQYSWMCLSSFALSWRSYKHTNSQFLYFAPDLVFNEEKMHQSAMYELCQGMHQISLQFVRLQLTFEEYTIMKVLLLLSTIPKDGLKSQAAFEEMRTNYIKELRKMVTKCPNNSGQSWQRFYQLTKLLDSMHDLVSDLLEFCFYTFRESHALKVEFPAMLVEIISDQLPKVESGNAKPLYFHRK

Chain of Androgen receptor (Homo sapiens, UniProt P10275, W742C) (P10275 whole entry W742C): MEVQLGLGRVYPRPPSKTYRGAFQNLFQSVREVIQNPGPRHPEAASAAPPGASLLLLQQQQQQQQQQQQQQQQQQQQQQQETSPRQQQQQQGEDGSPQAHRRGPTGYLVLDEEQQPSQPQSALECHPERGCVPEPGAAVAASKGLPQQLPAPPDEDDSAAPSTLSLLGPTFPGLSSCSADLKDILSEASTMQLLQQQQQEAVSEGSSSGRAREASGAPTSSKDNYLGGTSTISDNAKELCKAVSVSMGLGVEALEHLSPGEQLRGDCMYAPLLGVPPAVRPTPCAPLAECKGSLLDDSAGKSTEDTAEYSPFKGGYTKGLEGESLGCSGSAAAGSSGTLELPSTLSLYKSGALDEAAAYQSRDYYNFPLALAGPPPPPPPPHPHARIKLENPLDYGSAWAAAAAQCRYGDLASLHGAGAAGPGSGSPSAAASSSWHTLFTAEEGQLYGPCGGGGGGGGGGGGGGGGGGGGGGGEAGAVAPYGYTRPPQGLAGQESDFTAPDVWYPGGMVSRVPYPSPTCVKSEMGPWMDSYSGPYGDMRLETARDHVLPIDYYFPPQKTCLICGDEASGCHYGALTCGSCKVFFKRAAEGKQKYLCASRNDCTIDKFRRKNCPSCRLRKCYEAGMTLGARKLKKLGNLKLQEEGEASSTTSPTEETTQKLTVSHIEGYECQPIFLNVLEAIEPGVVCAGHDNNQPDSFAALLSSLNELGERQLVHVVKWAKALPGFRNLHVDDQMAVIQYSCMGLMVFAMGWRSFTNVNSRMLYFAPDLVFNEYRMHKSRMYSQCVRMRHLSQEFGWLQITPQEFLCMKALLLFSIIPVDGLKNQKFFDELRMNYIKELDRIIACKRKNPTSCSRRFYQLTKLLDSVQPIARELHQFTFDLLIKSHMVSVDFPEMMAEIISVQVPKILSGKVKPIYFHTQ
Chain of Androgen receptor (Homo sapiens, UniProt P10275, F877L/T878A) (P10275 whole entry F877L/T878A): as the sequence (P10275 whole entry W742C) above, with C742W, F877L, T878A counted along it

## O=c1cc(C(F)(F)F)c2ccc(NCc3ccc(O)cc3)cc2o1
Androgen receptor [1]
  pIC50: 6.19

## O=c1cc(C(F)(F)F)c2ccc(NCc3ccccc3Br)cc2o1
Androgen receptor [1]
  pIC50: 7.00

## CN(Cc1ccc(F)cc1)c1ccc2c(C(F)(F)F)cc(=O)oc2c1
[2]
  clearance: 41 mL/min/kg
[3]
  Activity: Non-Toxic
[4]
  bioavailability: 66.2%
[5]
  half-life: 30 min
[6]
  half-life: 289 min
Androgen receptor [7]
  pIC50: 6.80
[8]
  AUC(0-t): 1410 ng·h/mL
[9]
  Activity: Non-Toxic
[10]
  Vd: 1.81 L/kg
[11]
  Vz: 24.6 L/kg
NIH3T3
  Activity: Non-Toxic
[12]
  AUC(0-t): 426 ng·h/mL
Androgen receptor [1]
  pIC50: 7.29
[13]
  Activity: Non-Toxic
[14]
  CL/F: 58.5 mL/min/kg
Androgen receptor [15]
  pIC50: 6.77
[16]
  Cmax: 353 ng/mL
[17]
  Activity: Non-Toxic
GES1
  Activity: Non-Toxic
[18]
  Cmax: 1060 ng/mL

## O=C(Nc1ccc2c(C(F)(F)F)cc(=O)oc2c1)c1ccc(Br)cc1
Androgen receptor [1]
  pIC50: < 5.00

## O=c1cc(C(F)(F)F)c2ccc(NCc3ccc(Br)c(F)c3)cc2o1
Androgen receptor [1]
  pIC50: 7.16

## O=c1cc(C(F)(F)F)c2ccc(NCc3ccc(Cl)cc3)cc2o1
[2]
  clearance: 97.7 mL/min/kg
[4]
  bioavailability: 13%
[5]
  half-life: 16.2 min
[8]
  AUC(0-t): 103 ng·h/mL
[10]
  Vd: 2.3 L/kg
[12]
  AUC(0-t): 158 ng·h/mL
[16]
  Cmax: 258 ng/mL
[18]
  Cmax: 395 ng/mL

## O=c1cc(C(F)(F)F)c2ccc(NCc3ccc(F)cc3)cc2o1
[2]
  clearance: 507 mL/min/kg
LNCaP
  pIC50: 5.72
[4]
  bioavailability: 2.5%
[5]
  half-life: 12.6 min
[8]
  AUC(0-t): 4.09 ng·h/mL
CWR22R
  pIC50: 4.62
[10]
  Vd: 9.26 L/kg
PC-3
  pIC50: 4.67
[12]
  AUC(0-t): 32.4 ng·h/mL
DU-145
  pIC50: 5.20
Androgen receptor [1]
  pIC50: 7.62
[16]
  Cmax: 10.8 ng/mL
LNCaP C4-2B
  pIC50: 5.31
[19]
  IC50 at 72 h: 16 µM
[18]
  Cmax: 82.1 ng/mL

## CCN(Cc1ccc(F)cc1)c1ccc2c(C(F)(F)F)cc(=O)oc2c1
Androgen receptor [1]
  pIC50: 7.08

## O=c1cc(C(F)(F)F)c2ccc(NCc3ccc(Br)cc3)cc2o1
Androgen receptor [1]
  pIC50: 7.38

## O=c1cc(C(F)(F)F)c2cc([N+](=O)[O-])c(OCc3ccc(Br)cc3)cc2o1
Androgen receptor [1]
  pIC50: < 5.00

## CCN(Cc1cc(F)ccc1F)c1ccc2c(C(F)(F)F)cc(=O)oc2c1
Androgen receptor [1]
  pIC50: 6.37

## O=c1cc(C(F)(F)F)c2ccc(NCc3ccc(C(F)(F)F)cc3)cc2o1
Androgen receptor [1]
  pIC50: 6.96

## O=c1cc(C(F)(F)F)c2cc(N(CC(F)(F)F)CC(F)(F)F)c(OCc3ccc(Br)cc3)cc2o1
Androgen receptor [1]
  pIC50: < 5.00

## CNC(=O)c1ccc(N2C(=S)N(c3ccc(C#N)c(C(F)(F)F)c3)C(=O)C2(C)C)cc1F [ENZALUTAMIDE]
LNCaP
  pIC50: 4.63
CWR22R
  pIC50: < 4.30
PC-3
  pIC50: < 4.30
[19]
  IC50 at 72 h: > 50 µM
GES1
  Activity: Non-Toxic
[20]
  pIC50: 6.38

## C[C@]12CCC(=O)C[C@@H]1CC[C@@H]1[C@@H]2CC[C@]2(C)[C@@H](O)CC[C@@H]12 [STANOLONE]
[21]
  pIC50: 8.91
